The test system of assay [1] is EBV-infected human B cells. Description: chemotaxis trans well assay. Particulars: 3 hr migration. Type of assay: cell-based. Here is the method:
B cells (RS11846 or EBV-infected human B-cells) or murine bone marrow-derived dendritic cells were washed once with medium and resuspended at 1×10^6/ml. 100 μl of this suspension was added into the wells of the filter plate and gently placed into the receiver plate containing 150 μl of a given compound dilution. The final DMSO concentration was less then 0.1%. After migration for 3 hr at 37° C. in an incubator, the filter plate was carefully removed from the receiver plate and discarded. The migrated cells in the receiver plate were resuspended and transferred into round-bottom 96-well plate, centrifuged and resuspended in 100 μl PBS containing 2% FCS and 0.1% NaN3 (FACS buffer). The input cells (100 μl) were similarly processed. For the calculation of the specific migration, a fixed number of beads (10000; Invitrogen #PCB100)) in 20 μl FACS buffer was added and the suspension was analyzed by flow cytometry using a FACS instrument PAS™ (Partec). Cells were identified based on their forward scatter (FSC) and side scatter (SSC) pattern. Chemotaxis is expressed either as total cell number or as percent of input cells.
Human peripheral B lymphocytes (PBL) were prepared from peripheral blood as a cell suspension by centrifugation on Ficoll plaque. PBL were rinsed in PBS and resuspended in complete RPMI 1640 medium (10% FCS and antibiotics) at the concentration of 2×10^7/cell/ml. […]

Assay [2] has as its target hEBI2 (Homo sapiens, UniProt P32249). Kind of assay: luminescent aequorin functional assay, hEBI2 CHO-Aeq (Gqi5) cells. The assay is classed as cell-based. Also on record: expressed in transfected cells; host or cells: CHO-K1 expressing apoaequorin (CHO-Aeq) with Gqi5; line E2. The text has this:
The human EBI2 was inserted into the pEFIN3 vector at the EcoRI and XbaI sites in the multiple cloning site. Mouse EBI2 was cloned using RT-PCR from mouse genomic DNA and corresponded to the Genbank accession number Q3U6B2. The mouse EBI2 was inserted into the pEFIN3 vector at the EcoRI and XbaI sites in the multiple cloning site. Plasmids expressing human and mouse EBI2 were stably transfected in CHO-K1 and HEK293 cells expressing the apoaequorin (CHO-Aeq and HEK-Aeq) (Table 1). mRNA sequence integrity of EBI2 gene was checked using RT-PCR at T0 & T30 culture times in CHO cells.
hEBI2 CHO-Aeq cell lines were screened in a luminescent aequorin functional assay against proprietary libraries of natural ligands and collection of tissue extracts.
3 oxysterol and 3 vitamin D3 compounds were tested for EBI2 activation in an aequorin assay.

Chain of hEBI2 (P32249 whole entry): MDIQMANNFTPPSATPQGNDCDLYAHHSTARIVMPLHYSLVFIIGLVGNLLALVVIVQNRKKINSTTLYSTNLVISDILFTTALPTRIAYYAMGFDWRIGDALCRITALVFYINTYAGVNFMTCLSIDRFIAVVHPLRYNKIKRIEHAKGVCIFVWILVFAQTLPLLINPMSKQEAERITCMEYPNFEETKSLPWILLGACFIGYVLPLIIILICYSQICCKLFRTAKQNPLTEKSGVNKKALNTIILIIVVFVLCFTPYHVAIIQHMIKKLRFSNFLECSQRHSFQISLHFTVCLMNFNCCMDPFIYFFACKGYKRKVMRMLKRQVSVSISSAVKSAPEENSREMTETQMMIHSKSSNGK

As for `C[C@H](CCCC(C)(C)O)[C@H]1CC[C@H]2[C@@H]3[C@H](O)C=C4C[C@@H](O)CC[C@]4(C)[C@H]3CC[C@]12C` [7a,25DHC, cholest-5-ene-3b,7a,25-triol], the “attraction (migration) of EBV-infected B cells” value in assay [1] is on record as “potently attract”.

For `C[C@H](CCCC(C)(C)O)[C@H]1CC[C@H]2[C@@H]3[C@@H](O)C=C4C[C@@H](O)CC[C@]4(C)[C@H]3CC[C@]12C` [7b,25DHC, cholest-5-ene-3b,7b,25-triol], the “efficacy compared to the ATP response” value in assay [2] (ATP response = endogenous P2Y receptors) is “greater than 100%”. Also, the “activation of hEBI2 in different CHO-Aeq cell backgrounds” value in assay [2] (Gqi5 and Gα16 (=WTA11)) is “activation”. Further, in assay [2] (compared to WT CHO-AeqGqi5 cells and unrelated GPCRs HCR and GPR23), the “specificity and selectivity of hEBI2 activation” value is “specifically and selectively activates”.

For the origin of these results see patent US8497075B2, “Methods of identifying a modulator that inhibits the binding between Epstein-Barr virus induced receptor 2 and cholesterol derived ligands” (Novartis AG, priority 2008, dated 2013).
